In ChEMBL document CHEMBL4316596, “Antimicrobial Peptides with High Proteolytic Resistance for Combating Gram-Negative Bacteria” (J Med Chem, 2019):

Assays:
Escherichia coli [1] = test: Bactericidal activity against Escherichia coli K88 incubated for 4 hrs followed by culture spread on agar plates and cultured overnight; assay type: functional; details: K88, 4 h, read-out: MBC>99.9
Klebsiella pneumoniae [2] = test: Bactericidal activity against Klebsiella pneumoniae incubated for 4 hrs followed by culture spread on agar plates and cultured overnight; assay type: functional; details: read-out: MBC>99.9
Pseudomonas aeruginosa [3] = test: Antimicrobial activity against Pseudomonas aeruginosa 25349 clinical isolates after 24 hrs by NCCLS-protocol based assay; assay type: functional; details: Pseudomonas aeruginosa, 25349, 24 h
Pseudomonas aeruginosa [4] = test: Antimicrobial activity against Pseudomonas aeruginosa CICC 21625 clinical isolates after 24 hrs by NCCLS-protocol based assay; assay type: functional; details: CICC 21625, 24 h
Escherichia coli [5] = test: Bactericidal activity against Escherichia coli UB1005 incubated for 4 hrs followed by culture spread on agar plates and cultured overnight; assay type: functional; details: UB1005, 4 h, read-out: MBC>99.9
Pseudomonas aeruginosa [6] = test: Bactericidal activity against Pseudomonas aeruginosa 26305 clinical isolates incubated for 4 hrs followed by culture spread on agar plates and cultured overnight; assay type: functional; details: Pseudomonas aeruginosa, 26305, 4 h; read-out: MBC>99.9
Pseudomonas aeruginosa [7] = test: Antimicrobial activity against Pseudomonas aeruginosa CICC 21630 clinical isolates after 24 hrs by NCCLS-protocol based assay; assay type: functional; details: CICC 21630, 24 h
Escherichia coli [8] = test: Antimicrobial activity against Escherichia coli ATCC 25922 after 24 hrs by NCCLS-protocol based assay; assay type: functional; details: ATCC 25922, 24 h
Escherichia coli [9] = test: Bactericidal activity against Escherichia coli 078 incubated for 4 hrs followed by culture spread on agar plates and cultured overnight; assay type: functional; details: Escherichia coli, 078, 4 h; read-out: MBC>99.9
Escherichia coli [10] = test: Antimicrobial activity against Escherichia coli K99 after 24 hrs by NCCLS-protocol based assay; assay type: functional; details: K99, 24 h
Pseudomonas aeruginosa [11] = test: Bactericidal activity against Pseudomonas aeruginosa 25349 clinical isolates incubated for 4 hrs followed by culture spread on agar plates and cultured overnight; assay type: functional; details: Pseudomonas aeruginosa, 25349, 4 h; read-out: MBC>99.9
Escherichia coli [12] = test: Bactericidal activity against Escherichia coli K99 incubated for 4 hrs followed by culture spread on agar plates and cultured overnight; assay type: functional; details: K99, 4 h, read-out: MBC>99.9
Escherichia coli [13] = test: Antimicrobial activity against Escherichia coli 078 after 24 hrs by NCCLS-protocol based assay; assay type: functional; details: Escherichia coli, 078, 24 h
Pseudomonas aeruginosa [14] = test: Bactericidal activity against Pseudomonas aeruginosa PAO1 incubated for 4 hrs followed by culture spread on agar plates and cultured overnight; assay type: functional; details: PAO1, 4 h, read-out: MBC>99.9
Escherichia coli [15] = test: Bactericidal activity against Escherichia coli ATCC 25922 incubated for 4 hrs followed by culture spread on agar plates and cultured overnight; assay type: functional; details: ATCC 25922, 4 h, read-out: MBC>99.9
Pseudomonas aeruginosa [16] = test: Antimicrobial activity against Pseudomonas aeruginosa ATCC 27853 after 24 hrs by NCCLS-protocol based assay; assay type: functional; details: ATCC 27853, 24 h
Acinetobacter baumannii [17] = test: Antimicrobial activity against Acinetobacter baumannii after 24 hrs by NCCLS-protocol based assay; assay type: functional
Acinetobacter baumannii [18] = test: Bactericidal activity against Acinetobacter baumannii incubated for 4 hrs followed by culture spread on agar plates and cultured overnight; assay type: functional; details: read-out: MBC>99.9
Escherichia coli [19] = test: Antimicrobial activity against Escherichia coli UB1005 after 24 hrs by NCCLS-protocol based assay; assay type: functional; details: UB1005, 24 h
Salmonella typhimurium [20] = test: Bactericidal activity against Salmonella typhimurium C7731 incubated for 4 hrs followed by culture spread on agar plates and cultured overnight; assay type: functional, Salmonella enterica subsp. enterica serovar Typhimurium; details: Salmonella enterica, C7731, 4 h; read-out: MBC>99.9
Klebsiella pneumoniae [21] = test: Antimicrobial activity against Klebsiella pneumoniae after 24 hrs by NCCLS-protocol based assay; assay type: functional
Pseudomonas aeruginosa [22] = test: Bactericidal activity against Pseudomonas aeruginosa CICC 21630 clinical isolates incubated for 4 hrs followed by culture spread on agar plates and cultured overnight; assay type: functional; details: CICC 21630, 4 h, read-out: MBC>99.9
Salmonella typhimurium [23] = test: Antimicrobial activity against Salmonella typhimurium ATCC 14028 after 24 hrs by NCCLS-protocol based assay; assay type: functional, Salmonella enterica subsp. enterica serovar Typhimurium; details: Salmonella enterica, ATCC 14028, 24 h
Escherichia coli [24] = test: Antimicrobial activity against Escherichia coli K88 after 24 hrs by NCCLS-protocol based assay; assay type: functional; details: K88, 24 h
[25] = Antimicrobial activity against Salmonella pullorum C7913 after 24 hrs by NCCLS-protocol based assay; assay type: functional, Salmonella enterica subsp. enterica serovar Pullorum; details: Salmonella enterica, C7913, 24 h
Pseudomonas aeruginosa [26] = test: Antimicrobial activity against Pseudomonas aeruginosa 26305 clinical isolates after 24 hrs by NCCLS-protocol based assay; assay type: functional; details: Pseudomonas aeruginosa, 26305, 24 h
[27] = Bactericidal activity against Salmonella pullorum C7913 incubated for 4 hrs followed by culture spread on agar plates and cultured overnight; assay type: functional, Salmonella enterica subsp. enterica serovar Pullorum; details: Salmonella enterica, C7913, 4 h; read-out: MBC>99.9
Pseudomonas aeruginosa [28] = test: Bactericidal activity against Pseudomonas aeruginosa ATCC 27853 incubated for 4 hrs followed by culture spread on agar plates and cultured overnight; assay type: functional; details: ATCC 27853, 4 h, read-out: MBC>99.9
Pseudomonas aeruginosa [29] = test: Bactericidal activity against Pseudomonas aeruginosa CICC 21625 clinical isolates incubated for 4 hrs followed by culture spread on agar plates and cultured overnight; assay type: functional; details: CICC 21625, 4 h, read-out: MBC>99.9
Salmonella typhimurium [30] = test: Antimicrobial activity against Salmonella typhimurium C7731 after 24 hrs by NCCLS-protocol based assay; assay type: functional, Salmonella enterica subsp. enterica serovar Typhimurium; details: Salmonella enterica, C7731, 24 h
Pseudomonas aeruginosa [31] = test: Antimicrobial activity against Pseudomonas aeruginosa PAO1 after 24 hrs by NCCLS-protocol based assay; assay type: functional; details: PAO1, 24 h
Salmonella typhimurium [32] = test: Bactericidal activity against Salmonella typhimurium ATCC 14028 incubated for 4 hrs followed by culture spread on agar plates and cultured overnight; assay type: functional, Salmonella enterica subsp. enterica serovar Typhimurium; details: Salmonella enterica, ATCC 14028, 4 h; read-out: MBC>99.9

MIC95 (Pseudomonas aeruginosa [3]) | MIC95 (Pseudomonas aeruginosa [4]) | MIC95 (Pseudomonas aeruginosa [7]) | MIC95 (Escherichia coli [8]) | MIC95 (Escherichia coli [10]) | MIC95 (Escherichia coli [13]) | MIC95 (Pseudomonas aeruginosa [16]) | MIC95 (Acinetobacter baumannii [17]) | MIC95 (Escherichia coli [19]) | Substance | MBC (Escherichia coli [1]) | MBC (Klebsiella pneumoniae [2]) | MBC (Escherichia coli [5]) | MBC (Pseudomonas aeruginosa [6]) | MBC (Escherichia coli [9]) | MBC (Pseudomonas aeruginosa [11]) | MBC (Escherichia coli [12]) | MBC (Pseudomonas aeruginosa [14]) | MBC (Escherichia coli [15]) | MBC (Acinetobacter baumannii [18]) | MBC (Salmonella typhimurium [20]) | other results
> 64 µM | 64 µM | > 64 µM | 8 µM | 32 µM | 16 µM | > 64 µM | 2 µM | 32 µM | H-LRPLLRPLLRPLLRPL-NH2 | 8 µM | > 64 µM | 32 µM | > 64 µM | 16 µM | > 64 µM | 32 µM | > 64 µM | 8 µM | 8 µM | 64 µM | MIC95 (Klebsiella pneumoniae [21]): > 64 µM; MBC (Pseudomonas aeruginosa [22]): > 64 µM; MIC95 (Salmonella typhimurium [23]): 32 µM; MIC95 (Escherichia coli [24]): 8 µM; MIC95 [25]: 8 µM; MIC95 (Pseudomonas aeruginosa [26]): > 64 µM; MBC [27]: 16 µM; MBC (Pseudomonas aeruginosa [28]): > 64 µM; MBC (Pseudomonas aeruginosa [29]): > 64 µM; MIC95 (Salmonella typhimurium [30]): 64 µM; MIC95 (Pseudomonas aeruginosa [31]): > 64 µM; MBC (Salmonella typhimurium [32]): 64 µM
> 64 µM | > 64 µM | > 64 µM | 8 µM | 16 µM | 8 µM | > 64 µM | 4 µM | 8 µM | H-VRPVVRPVVRPVVRPVVRPVVRPVVRPV-NH2 | 32 µM | 64 µM | 8 µM | > 64 µM | 16 µM | > 64 µM | 32 µM | > 64 µM | 16 µM | 4 µM | 32 µM | MIC95 (Klebsiella pneumoniae [21]): 32 µM; MBC (Pseudomonas aeruginosa [22]): > 64 µM; MIC95 (Salmonella typhimurium [23]): 8 µM; MIC95 (Escherichia coli [24]): 8 µM; MIC95 [25]: 4 µM; MIC95 (Pseudomonas aeruginosa [26]): > 64 µM; MBC [27]: 8 µM; MBC (Pseudomonas aeruginosa [28]): > 64 µM; MBC (Pseudomonas aeruginosa [29]): > 64 µM; MIC95 (Salmonella typhimurium [30]): 16 µM; MIC95 (Pseudomonas aeruginosa [31]): > 64 µM; MBC (Salmonella typhimurium [32]): 16 µM
2 µM | 8 µM | 4 µM | 2 µM | 1 µM | 1 µM | 2 µM | 1 µM | 2 µM | H-LRPLLRPLLRPLLRPLLRPLLRPLLRPLLRPL-NH2 | 1 µM | 4 µM | 4 µM | 4 µM | 2 µM | 4 µM | 2 µM | 4 µM | 2 µM | 1 µM | 4 µM | MIC95 (Klebsiella pneumoniae [21]): 2 µM; MBC (Pseudomonas aeruginosa [22]): 4 µM; MIC95 (Salmonella typhimurium [23]): 2 µM; MIC95 (Escherichia coli [24]): 1 µM; MIC95 [25]: 1 µM; MIC95 (Pseudomonas aeruginosa [26]): 2 µM; MBC [27]: 2 µM; MBC (Pseudomonas aeruginosa [28]): 4 µM; MBC (Pseudomonas aeruginosa [29]): 8 µM; MIC95 (Salmonella typhimurium [30]): 2 µM; MIC95 (Pseudomonas aeruginosa [31]): 2 µM; MBC (Salmonella typhimurium [32]): 4 µM
4 µM | 4 µM | 4 µM | 1 µM | 1 µM | 2 µM | 2 µM | 1 µM | 2 µM | H-LKPLLKPLLKPLLKPLLKPLLKPLLKPLLKPL-NH2 | 1 µM | 2 µM | 4 µM | 8 µM | 2 µM | 16 µM | 2 µM | 2 µM | 1 µM | 1 µM | 4 µM | MIC95 (Klebsiella pneumoniae [21]): 1 µM; MBC (Pseudomonas aeruginosa [22]): 8 µM; MIC95 (Salmonella typhimurium [23]): 2 µM; MIC95 (Escherichia coli [24]): 1 µM; MIC95 [25]: 2 µM; MIC95 (Pseudomonas aeruginosa [26]): 4 µM; MBC [27]: 4 µM; MBC (Pseudomonas aeruginosa [28]): 2 µM; MBC (Pseudomonas aeruginosa [29]): 16 µM; MIC95 (Salmonella typhimurium [30]): 4 µM; MIC95 (Pseudomonas aeruginosa [31]): 1 µM; MBC (Salmonella typhimurium [32]): 4 µM
